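Briefly, cells in 96-well plates were exposed to five compound concentrations for 48 h, and endpoints were estimated by linear interpolation. GI50 is the concentration that inhibits growth by half.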 Active and inactive are the calls of the source. Rule as the data show it: active = GI50 up to about 1.1 µM and inactive = higher. Bounds are passed on as bounds.

Some test systems named below: M14; MDA-MB-435; TK-10; A498; HT-29; NCI-H460; SN12C; RXF 393; HL-60; IGROV-1; Hs-578T; SW-620; OVCAR-5; KM12; MCF7; SR; OVCAR-3; CAKI-1; NCI-H522; SK-MEL-2.
Common to all, as to assay: growth of human tumour cells (NCI), 48 h

For the molecule `C#CCN(CC#C)C(=O)C(=O)c1c[nH]c2ccc(OC)cc12`, the GI50 with M14 was 18.5 µM (inactive); with MDA-MB-435, 18.5 µM (inactive); with TK-10 it was 14.5 µM (inactive); in the test on A498 it was 15.1 µM (inactive); in the test on HT-29, 12.5 µM (inactive); in the test on NCI-H460, 15 µM (inactive). Moreover, the GI50 is 15.3 µM (inactive) in the test on SN12C; 16.3 µM (inactive) in the test with RXF 393; 3.99 µM (inactive) in the test on HL-60; 33 µM (inactive) in the test on IGROV-1; 16.1 µM (inactive) in the test with Hs-578T; 20.3 µM (inactive) in the test with SW-620. Further, the GI50 is 17.4 µM (inactive) in the test with OVCAR-5, 14 µM (inactive) in the test on KM12, 18.6 µM (inactive) in the test on MCF7 and 11.1 µM (inactive) with SR.
`COC(=O)c1ccccc1/C=C1\Cc2ccc3c(c2C1=O)CCC3`: the GI50 in the test on OVCAR-3, in the test with MDA-MB-435, in the test with TK-10, in the test on A498, in the test on CAKI-1 and in the test with HT-29 was > 100 µM (inactive) in each case. Also, the GI50 in the test on NCI-H522, in the test on NCI-H460, with SN12C, in the test on RXF 393, in the test on HL-60 and with IGROV-1 was > 100 µM (inactive) throughout. Also, the GI50 in the test with Hs-578T, in the test with SW-620, in the test on OVCAR-5, in the test with KM12, in the test on MCF7 and in the test on SR was > 100 µM (inactive) in each case.
With `C#CCn1c(=O)c(C)cn(/C(=C\C(=O)OCC)C(=O)OCC)c1=O`, the GI50 is 16.2 µM (inactive) in the test with SK-MEL-2; 6.17 µM (inactive) in the test with OVCAR-3; 4.19 µM (inactive) with M14; 5.16 µM (inactive) in the test with MDA-MB-435; 1.77 µM (inactive) in the test on TK-10; 17.2 µM (inactive) in the test with A498. Further, the GI50 is 1.36 µM (inactive) with CAKI-1; 1.72 µM (inactive) in the test on HT-29; 2.2 µM (inactive) in the test with NCI-H460; 6.3 µM (inactive) in the test on SN12C; 1.95 µM (inactive) in the test with RXF 393; 1.35 µM (inactive) in the test on HL-60. For the same molecule, the GI50 is 8.63 µM (inactive) with IGROV-1; 24.8 µM (inactive) in the test on Hs-578T; 1.67 µM (inactive) with SW-620; 7.06 µM (inactive) in the test on OVCAR-5; 30.1 µM (inactive) in the test with KM12; 2.72 µM (inactive) in the test on MCF7. In the test with SR, the GI50 was 2.96 µM (inactive).
For `C[C@@H]1O[C@@H](O[C@H]2CC[C@]3(C=O)[C@H]4CC[C@]5(C)[C@@H](c6ccc(=O)oc6)CC[C@]5(O)[C@@H]4CC[C@]3(O)C2)[C@H](O)[C@H](O)[C@H]1O[C@@H]1O[C@H](CO)[C@@H](O)[C@H](O)[C@H]1O` [HELLEBRIN], the GI50 is 0.0199 µM (active) in the test on SK-MEL-2; 0.00408 µM (active) with OVCAR-3; 0.021 µM (active) in the test with M14; 0.0107 µM (active) in the test with MDA-MB-435; 0.00347 µM (active) in the test on TK-10; 0.0284 µM (active) with A498. The GI50 with CAKI-1 was 0.0121 µM (active); in the test on HT-29, 0.0212 µM (active); in the test on NCI-H522, 0.00324 µM (active); in the test on NCI-H460, 0.00771 µM (active); in the test on SN12C, 0.00506 µM (active); in the test on HL-60, 0.00615 µM (active). Besides, the GI50 in the test with IGROV-1 is 0.0183 µM (active); in the test on Hs-578T it was 0.00653 µM (active); in the test with SW-620 it was 0.0375 µM (active); in the test on OVCAR-5 it was 0.00989 µM (active); in the test with KM12, 0.0521 µM (active); in the test on MCF7, 0.0375 µM (active). Further, the GI50 with SR was 0.00601 µM (active).

Source of the values: ChEMBL document CHEMBL1201862, “PubChem BioAssay data set” (2004).
